Reference: PubChem BioAssay (NCI)
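Step 1: Grow cells in 96-well plates. Step 2: Expose to compound for 48 hours at 5 concentrations. Step 3: Interpolate endpoints linearly; if unreached, use highest concentration. Abbreviation: GI50, concentration required for 50% inhibition of growth. TGI: concentration producing complete growth inhibition.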

Columns and labels:
Assay in all cases: inhibition of tumour cell growth, NCI panel, 48 h
OVCAR-4 ovarian = tested on: OVCAR-4 ovarian
SNB-75 CNS = tested on: SNB-75 CNS
M14 melanoma = tested on: M14 melanoma
NCI-H226 lung = tested on: NCI-H226 lung
IGROV1 ovarian = tested on: IGROV1 ovarian
UACC-62 melanoma = tested on: UACC-62 melanoma
SK-MEL-2 melanoma = tested on: SK-MEL-2 melanoma
U251 CNS = tested on: U251 CNS
HCT-116 colon = tested on: HCT-116 colon
HCC-2998 colon = tested on: HCC-2998 colon
NCI-H23 lung = tested on: NCI-H23 lung
SR leukemia = tested on: SR leukemia
OVCAR-3 ovarian = tested on: OVCAR-3 ovarian
HL-60(TB) leukemia = tested on: HL-60(TB) leukemia
MDA-MB-435 = tested on: MDA-MB-435
HCT-15 colon = tested on: HCT-15 colon
SF-539 CNS = tested on: SF-539 CNS
MCF7 breast = tested on: MCF7 breast
COLO 205 colon = tested on: COLO 205 colon
MDA-MB-231 breast = tested on: MDA-MB-231 breast
UACC-257 melanoma = tested on: UACC-257 melanoma
T-47D breast = tested on: T-47D breast
NCI-H522 lung = tested on: NCI-H522 lung
RPMI-8226 leukemia = tested on: RPMI-8226 leukemia
ACHN renal = tested on: ACHN renal
SW-620 colon = tested on: SW-620 colon
SN12C renal = tested on: SN12C renal
SK-MEL-28 melanoma = tested on: SK-MEL-28 melanoma
OVCAR-8 ovarian = tested on: OVCAR-8 ovarian
HT29 colon = tested on: HT29 colon
SF-268 CNS = tested on: SF-268 CNS
SK-MEL-5 melanoma = tested on: SK-MEL-5 melanoma
NCI/ADR-RES ovarian = tested on: NCI/ADR-RES ovarian
EKVX NSCLC = tested on: EKVX NSCLC
CCRF-CEM leukemia = tested on: CCRF-CEM leukemia
MOLT-4 leukemia = tested on: MOLT-4 leukemia
A549 NSCLC = tested on: A549 NSCLC
A498 renal = tested on: A498 renal
TK-10 renal = tested on: TK-10 renal
MALME-3M melanoma = tested on: MALME-3M melanoma
HOP-92 NSCLC = tested on: HOP-92 NSCLC
RXF 393 renal = tested on: RXF 393 renal
KM12 colon = tested on: KM12 colon
NCI-H460 lung = tested on: NCI-H460 lung
HS 578T breast = tested on: HS 578T breast
UO-31 renal = tested on: UO-31 renal
CAKI-1 renal = tested on: CAKI-1 renal
DU-145 prostate = tested on: DU-145 prostate
786-0 renal = tested on: 786-0 renal
LOX IMVI melanoma = tested on: LOX IMVI melanoma
SK-OV-3 ovarian = tested on: SK-OV-3 ovarian
SF-295 CNS = tested on: SF-295 CNS
SNB-19 CNS = tested on: SNB-19 CNS
OVCAR-5 ovarian = tested on: OVCAR-5 ovarian
BT-549 breast = tested on: BT-549 breast
K-562 leukemia = tested on: K-562 leukemia
PC-3 prostate = tested on: PC-3 prostate

## O=C(NCc1ccccc1)c1cnc(Cl)cn1
OVCAR-4 ovarian
  TGI: > 100000 nM
SNB-75 CNS
  TGI: > 100000 nM
M14 melanoma
  TGI: > 100000 nM
NCI-H226 lung
  TGI: > 100000 nM
IGROV1 ovarian
  TGI: > 100000 nM
UACC-62 melanoma
  TGI: > 100000 nM
SK-MEL-2 melanoma
  TGI: > 100000 nM
U251 CNS
  TGI: > 100000 nM
HCT-116 colon
  TGI: > 100000 nM
HCC-2998 colon
  TGI: 43300 nM
NCI-H23 lung
  TGI: 87400 nM
SR leukemia
  TGI: 69800 nM
OVCAR-3 ovarian
  TGI: > 100000 nM
HL-60(TB) leukemia
  TGI: > 100000 nM
MDA-MB-435
  TGI: > 100000 nM
HCT-15 colon
  TGI: 82400 nM
SF-539 CNS
  TGI: > 100000 nM
MCF7 breast
  TGI: > 100000 nM
COLO 205 colon
  TGI: > 100000 nM
MDA-MB-231 breast
  TGI: > 100000 nM
UACC-257 melanoma
  TGI: > 100000 nM
T-47D breast
  TGI: > 100000 nM
NCI-H522 lung
  TGI: 4350 nM
RPMI-8226 leukemia
  TGI: > 100000 nM
ACHN renal
  TGI: 44100 nM
SW-620 colon
  TGI: > 100000 nM
SN12C renal
  TGI: > 100000 nM
SK-MEL-28 melanoma
  TGI: > 100000 nM
OVCAR-8 ovarian
  TGI: > 100000 nM
HT29 colon
  TGI: > 100000 nM
SF-268 CNS
  TGI: > 100000 nM
SK-MEL-5 melanoma
  TGI: > 100000 nM
NCI/ADR-RES ovarian
  TGI: 44200 nM
EKVX NSCLC
  TGI: > 100000 nM
CCRF-CEM leukemia
  TGI: 62600 nM
MOLT-4 leukemia
  TGI: > 100000 nM
A549 NSCLC
  TGI: > 100000 nM
A498 renal
  TGI: > 100000 nM
TK-10 renal
  TGI: > 100000 nM
MALME-3M melanoma
  TGI: > 100000 nM
HOP-92 NSCLC
  TGI: 55000 nM
RXF 393 renal
  TGI: > 100000 nM
KM12 colon
  TGI: > 100000 nM
NCI-H460 lung
  TGI: > 100000 nM
HS 578T breast
  TGI: > 100000 nM
UO-31 renal
  TGI: 36300 nM
CAKI-1 renal
  TGI: 33000 nM
DU-145 prostate
  TGI: > 100000 nM
786-0 renal
  TGI: > 100000 nM
LOX IMVI melanoma
  TGI: > 100000 nM
SK-OV-3 ovarian
  TGI: > 100000 nM
SF-295 CNS
  TGI: > 100000 nM
SNB-19 CNS
  TGI: > 100000 nM

## O=C(CCN1CCCC1)Nc1ccc2c(NCCCc3ccccc3)c3ccccc3nc2c1
OVCAR-4 ovarian
  GI50: 812 nM
  TGI: 2260 nM
SNB-75 CNS
  GI50: 1170 nM
  TGI: 2410 nM
OVCAR-5 ovarian
  GI50: 1120 nM
  TGI: 2400 nM
NCI-H226 lung
  GI50: 1270 nM
  TGI: 2830 nM
UACC-62 melanoma
  GI50: 1540 nM
  TGI: 2930 nM
SK-MEL-2 melanoma
  GI50: 1690 nM
  TGI: 3240 nM
U251 CNS
  GI50: 1040 nM
  TGI: 2360 nM
HCC-2998 colon
  GI50: 1140 nM
  TGI: 2430 nM
NCI-H23 lung
  GI50: 1120 nM
  TGI: 2410 nM
BT-549 breast
  GI50: 1610 nM
  TGI: 3110 nM
SR leukemia
  GI50: 467 nM
  TGI: 2550 nM
K-562 leukemia
  GI50: 945 nM
  TGI: 3360 nM
MDA-MB-435
  GI50: 1460 nM
  TGI: 2820 nM
HCT-15 colon
  GI50: 2620 nM
  TGI: 10500 nM
SF-539 CNS
  GI50: 1240 nM
  TGI: 2550 nM
MCF7 breast
  GI50: 467 nM
  TGI: 1800 nM
PC-3 prostate
  GI50: 566 nM
  TGI: 1940 nM
MDA-MB-231 breast
  GI50: 1020 nM
  TGI: 2300 nM
UACC-257 melanoma
  GI50: 1810 nM
  TGI: 3640 nM
T-47D breast
  GI50: 1340 nM
  TGI: 3910 nM
NCI-H522 lung
  GI50: 664 nM
  TGI: 2150 nM
RPMI-8226 leukemia
  GI50: 611 nM
  TGI: 3630 nM
ACHN renal
  GI50: 1420 nM
  TGI: 2800 nM
SW-620 colon
  GI50: 540 nM
  TGI: 1930 nM
SN12C renal
  GI50: 815 nM
  TGI: 2210 nM
SK-MEL-28 melanoma
  GI50: 1770 nM
  TGI: 3250 nM
SK-MEL-5 melanoma
  GI50: 1610 nM
  TGI: 2970 nM
NCI/ADR-RES ovarian
  GI50: 15100 nM
  TGI: 71900 nM
EKVX NSCLC
  GI50: 1210 nM
  TGI: 2560 nM
CCRF-CEM leukemia
  GI50: 562 nM
  TGI: 3030 nM
A498 renal
  GI50: 1310 nM
  TGI: 3140 nM
TK-10 renal
  GI50: 1660 nM
  TGI: 3410 nM
MALME-3M melanoma
  GI50: 1580 nM
  TGI: 3120 nM
HOP-92 NSCLC
  GI50: 875 nM
  TGI: 2240 nM
RXF 393 renal
  GI50: 918 nM
  TGI: 2200 nM
KM12 colon
  GI50: 1170 nM
  TGI: 2540 nM
NCI-H460 lung
  GI50: 460 nM
  TGI: 1600 nM
UO-31 renal
  GI50: 1600 nM
  TGI: 3160 nM
CAKI-1 renal
  GI50: 14800 nM
  TGI: 28000 nM
DU-145 prostate
  GI50: 886 nM
  TGI: 2090 nM
LOX IMVI melanoma
  GI50: 739 nM
  TGI: 2040 nM
SF-295 CNS
  GI50: 1310 nM
  TGI: 2590 nM
SNB-19 CNS
  GI50: 729 nM
  TGI: 2000 nM
